Results on 6 compounds are retold here after US5599811A, “Benzothiazine dioxides as endothelin antagonists” (Warner-Lambert Company, priority 1995, dated 1997).

The test system of assay [1] is allergic sheep. The conditions noted are these: cited from earlier work.
In assay [2] the test system is cerebral vasospasm following subarachnoid hemorrhage. The conditions noted are these: in vivo; cited from earlier work.
For assay [3], the system named is cerebral vasospasm following SAH. The conditions noted are these: rat; cited from earlier work.
Assay [4] has the same test system. The conditions noted are these: rabbit; cited from earlier work.
Assay [5] concerns ischemia-induced acute renal failure. Particulars: anesthetized dogs (title of citation); cited from earlier work.
Assay [6] relates to basilar artery. Particulars: after 7 days, canine two-hemorrhage model of SAH; cited from earlier work.
The test system of assay [7] is congestive heart failure. Particulars: rat, in vivo; cited from earlier work.
Assay [8] concerns basilar artery. Particulars: rabbits with SAH; cited from earlier work.
For assay [9], the system named is acute renal ischemia. Particulars: rats; cited from earlier work.
Assay [10] deals with subarachnoid hemorrhage. Particulars: rats; cited from earlier work.
Assay [11] has as its target T1, ETA (Oryctolagus cuniculus, UniProt A5A8K3).
T1 construct: cultured rabbit renal artery vascular smooth muscle cells; endogenous in cells; host or cells: cultured rabbit renal artery vascular smooth muscle cells
T1 sequence (A5A8K3 21-427): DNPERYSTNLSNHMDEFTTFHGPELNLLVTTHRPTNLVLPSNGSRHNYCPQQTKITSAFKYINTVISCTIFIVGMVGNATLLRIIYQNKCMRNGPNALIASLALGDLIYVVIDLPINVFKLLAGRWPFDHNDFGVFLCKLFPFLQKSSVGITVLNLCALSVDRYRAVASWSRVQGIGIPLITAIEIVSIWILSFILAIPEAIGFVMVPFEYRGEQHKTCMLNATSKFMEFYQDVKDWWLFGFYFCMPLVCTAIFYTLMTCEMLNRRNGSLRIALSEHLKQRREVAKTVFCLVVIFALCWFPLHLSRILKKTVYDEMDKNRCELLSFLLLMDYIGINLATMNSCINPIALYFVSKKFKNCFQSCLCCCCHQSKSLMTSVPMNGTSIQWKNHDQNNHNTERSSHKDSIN
Put plainly: VERA-A: antagonism of ET-1 stimulated vasoconstriction in the rabbit femoral artery. The conditions noted are these: rabbit femoral artery rings, antagonist added 30 minutes before ET-1; read-out: VERAA pA2 (converted).

The target in assay [12] is T2, recombinant human ETA R (Homo sapiens, UniProt P25101).
T2 construct: expressed in transfected cells; host or cells: Ltk- cells
T2 sequence (P25101 21-427): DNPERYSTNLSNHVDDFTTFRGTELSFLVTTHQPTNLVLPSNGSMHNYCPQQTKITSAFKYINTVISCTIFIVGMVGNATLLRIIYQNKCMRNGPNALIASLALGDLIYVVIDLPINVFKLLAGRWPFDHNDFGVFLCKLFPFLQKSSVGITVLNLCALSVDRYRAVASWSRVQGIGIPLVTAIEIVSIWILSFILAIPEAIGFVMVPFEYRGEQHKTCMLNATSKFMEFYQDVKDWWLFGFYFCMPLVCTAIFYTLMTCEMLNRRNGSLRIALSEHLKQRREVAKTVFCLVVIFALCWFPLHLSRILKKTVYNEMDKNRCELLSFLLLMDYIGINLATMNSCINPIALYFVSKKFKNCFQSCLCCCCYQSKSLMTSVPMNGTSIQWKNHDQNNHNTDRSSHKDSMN
Type of assay: binding. Particulars: [125I]-ET-1 40 pM, 2 hours at 37° C.; read-out: HERBAA IC50. The protocol:
(§1) The compounds of Formula I are valuable antagonists of endothelin.
(§2) The following cultured cells were used in binding experiments: rabbit renal artery vascular smooth muscle cells (ERBA-A), Ltk-cells expressing recombinant human ETA R (HERBA-A), and CHO-K1 cells expressing recombinant human ETB R (HERBA-B).
(§3) Membranes were prepared from cultured cells by lysing cells in cold lysis buffer (5 mM HEPES, 2 mM EDTA, pH 7.4) and homogenizing with a Dounce "A" homogenizer. The homogenate was centrifuged at 30,000× g for 20 minutes at 4° C. Membrane pellets were suspended in cold buffer containing 20 mM Tris, 2 mM EDTA, 200 μM Pefabloc, 10 μM phosphoramidon, 10 μM leupeptin, 1 μM pepstatin at pH 7.4 and frozen at -80° C. until use. Membranes were thawed and homogenized with a Brinkmann Polytron then diluted in tissue buffer containing 20 mM Tris, 2 mM EDTA, 200 μM Pefabloc, and 100 μM bacitracin (pH 7.4). Radioligand and competing ligands were prepared in binding buffer containing 20 mM Tris, 2 mM EDTA, and 0.1% BSA.
(§4) Competing binding assays were initiated by combining membranes, [125I]-ET-1 (40 pM) and the competing ligand in a final volume of 250 μL and incubating for 2 hours at 37° C. The assay was terminated by filtration over Whatman GF/B filters which were presoaked with 50 mM Tris, pH 7.4 containing 0.2% BSA and 100 μM bacitracin. Nonspecific binding was defined as binding in the presence of 100 nM ET-1.

The target in assay [13] is T3, recombinant human ETB R (Homo sapiens, UniProt P24530).
T3 construct: expressed in transfected cells; host or cells: CHO-K1 cells
T3 sequence (P24530 27-442): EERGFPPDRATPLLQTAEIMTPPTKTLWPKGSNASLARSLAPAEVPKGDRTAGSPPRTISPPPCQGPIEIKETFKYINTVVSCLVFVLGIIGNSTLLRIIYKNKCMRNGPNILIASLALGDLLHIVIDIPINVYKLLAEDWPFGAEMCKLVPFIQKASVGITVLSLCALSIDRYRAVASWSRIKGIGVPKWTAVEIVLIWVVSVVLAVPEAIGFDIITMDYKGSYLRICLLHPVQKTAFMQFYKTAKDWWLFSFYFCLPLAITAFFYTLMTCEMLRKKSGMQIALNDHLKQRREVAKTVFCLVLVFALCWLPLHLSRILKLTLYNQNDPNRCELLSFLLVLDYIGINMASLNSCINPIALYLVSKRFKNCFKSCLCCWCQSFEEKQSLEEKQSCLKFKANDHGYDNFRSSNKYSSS
Type of assay: binding. The conditions noted are these: [125I]-ET-1 40 pM, 2 hours at 37° C.; read-out: HERBAB IC50. The procedure:
as §1, §2, §3, §4

Assay [14] addresses T1, ETA. Put plainly: AAR: inhibition of ET-1 stimulated arachidonic acid release in cultured rabbit renal artery vascular smooth muscle cells. The assay is classed as cell-based. Particulars: 0.3 nM ET-1, 30 minutes.
Description: as §1

Like-named read-outs stand apart in the source and are kept apart here. Where a SMILES comes first, the peptide text is derived from it. [ ]: non-standard residue; d: D form.

For `CC(C)C[C@@H]1NC(=O)[C@@H](C(C)C)NC(=O)[C@@H]2CCCN2C(=O)[C@@H](CC(=O)O)NC(=O)[C@@H](Cc2c[nH]c3ccccc23)NC1=O` [BQ-123] (cyclo(L[dW][dD]P[dV])), the “block of ET-1-induced bronchoconstriction and tracheal smooth muscle contraction” value in assay [1] was “block ET-1-induced bronchoconstriction and tracheal smooth muscle contraction”. Besides, the “prevention of early cerebral vasospasm following subarachnoid hemorrhage” value in assay [2] is reported as “prevent early cerebral vasospasm following subarachnoid hemorrhage”. Further, the “prevention of early cerebral vasospasm following SAH” value in [3] and in assay [4] was “prevents early cerebral vasospasm following SAH” each time.

Turning to `CCCOc1ccc2c(c1)[C@@H](c1ccc(OC)cc1OCC(=O)O)[C@H](C(=O)O)[C@H]2c1ccc2c(c1)OCO2` [SB 209670], in [5], the “effect in ischemia-induced acute renal failure” value is listed as “beneficial in ischemia-induced acute renal failure”.

As to FR 139317, in [6], the “inhibition of vasoconstriction of the basilar artery” value was “significantly inhibited the vascoconstriction of the basilar artery”.

As to `COc1ccccc1Oc1c(NS(=O)(=O)c2ccc(C(C)(C)C)cc2)nc(-c2ncccn2)nc1OCCO` [Bosentan], in assay [7], the “treatment of congestive heart failure” value was “useful in the treatment of congestive heart failure”. Besides, the “reduction of basilar artery cross-sectional area compared to sham rabbits” value in assay [8] was 36±7%.

Regarding `COc1cccc(Oc2c(NS(=O)(=O)c3ccc(C(C)(C)C)cc3)ncnc2OCCO)c1` [Ro 46-2005], the “effect in model of acute renal ischemia” value in assay [9] was “effective”. The “effect in model of subarachnoid hemorrhage” value in assay [10] is “effective”. Besides, in assay [3], the “prevention of early cerebral vasospasm following SAH” value is listed as “prevent early cerebral vasospasm following SAH”.

For orientation: IC50 means the point on the concentration scale where inhibition reaches its midpoint. For the compound `O=C(O)C1=C(Sc2ccc3c(c2)OCO3)c2ccccc2S(=O)(=O)N1Cc1ccc2c(c1)OCO2` [Example 42, 2-Benzo[1,3]dioxol-5-ylmethyl-4-(benzo[1,3]dioxol-5-ylsulfanyl)-1,1-dioxo-1,2-dihydro-1λ^6-benzo[e][1,2]thiazine-3-carboxylic acid], in assay [11], the Kb was greater than 10000 nM. The IC50 in assay [12] stood at 66 nM; in [13] it was 5400 nM; in assay [14], 1200 nM.
